The source of these data is patent US9750805B2, “Calcium flux agonists and methods therefor” (Nant Holdings IP, LLC, priority 2012, dated 2017).

Assay type in all cases: cell-based, human
In test [1] the test system is TLR (TLR2, TLR4, TLR5, TLR9) and NOD (NOD1, NOD2) family members. Briefly: IL-8 production with TLR and NOD ligands plus suboptimal calcium flux agonist (FIGS. 3A-3E). The following applies: suboptimal doses: 20 nM thapsigargin, 316 nM A23187, 1 μM ionomycin, 10 μM cyclopiazonic acid, 31.6 μM DBHQ. As to the method:
To investigate if that observation was also true for other pattern recognition receptors, and especially for TLR and NOD receptors and other ligands, the inventors tested numerous TLR and NOD receptors and various ligands.
The doses used in this experiment were 20 nM for thapsigargin, 316 nM for A23187, 1 μM for ionomycin, 10 μM for cyclopiazonic acid, and 31.6 μM for DBHQ.
Thus, a clear pattern of adjuvant activity of calcium flux agonists on the immune response, and especially on IL-8 production and NF-κB signaling is evident where the immune response is associated with a TLR- or NOD-mediated event.

The subject of test [2] is κB-LUC THP-1 reporter cells. Briefly: κB-LUC THP-1 reporter response to S. aureus conditioned/spent media (FIGS. 5B-5E). The source says: Briefly, a culture of logarithmically dividing S. aureus was washed three times with RPMI 1640 (Cellgro). Concurrently, THP-1 κB-LUC THP-1's (THP-1 cells containing the stable integration of a NF-κB luciferase reporter gene) cultured in RPMI 1640 (Cellgro) supplemented with 10% FBS (Thermo HyClone, Waltham Mass.) and 1% penicillin-streptomycin-fungizone (Thermo HyClone) were washed three times with RPMI 1640 (Cellgro) and transferred to the bottom compartment of a 24-well 0.4 μm cutoff transwell plate (Corning) at a concentration of 1.2 million/mL. Dilutions of the washed S. aureus culture were then added to the top chamber of the transwell system at the indicated initial multiplicities of infection (MOI). The cells were incubated for 18 hours at 37° C. at which time aliquots of 60,000 cells were transferred to wells in a 384-well white bottom plate (Thermo). To evaluate luciferase gene expression, Bright-Glo Luciferase Assay Reagent (Promega) was added to each well and the plates were analyzed for luciferase activity using the Perkin Elmer TopCount NXT system (Perkin Elmer).
To determine whether the recognition of S. aureus-produced products could be further augmented through modulation of calcium flux, κB-LUC THP-1 reporter cells were incubated in the presence of a 1:100 dilution (V/V) of sterile filtered S. aureus conditioned (i.e. spent) or unused sterile media and treated with a suboptimal dose (20 nM) of thapsigargin or dimethyl sulfoxide (DMSO) vehicle control as described above. Briefly, conditioned media was produced by culturing S. aureus in RPMI with 10% fetal bovine serum overnight in a shaking incubator at 37° C. following which the bacteria were pelleted by centrifugation and the supernatants filter-sterilized using a 0.2 μm filter (VWR Radnor PA). The κB-LUC THP-1 cells were incubated in the presence of the conditioned/spent media for 18 hours prior to luciferase assay as described above.

A further test relates to NF-κB THP-1 cells. Briefly: NF-κB luciferase reporter synergy with TLR2 ligand and effect of Ca2+ modulating compounds (FIG. 4). The following applies: FIG. 4; calcium flux agonist plus TLR ligand. How it is done: For example, human promonocytic THP-1 cells were incubated in the presence or absence of a suboptimal dose of the TLR2 ligand Pam2CSK4 and compared to similarly treated cells which also received suboptimal doses of ionophore (here: A23187 and ionomycin). […] In another example, NF-κB THP-1 cells (a THP-1-derived transfectant line harboring an NF-κB-driven luciferase expression cassette) were cultivated in the presence or absence of a suboptimal dose of the TLR2 ligand Pam2CSK4 and compared to similarly treated cells that also received suboptimal doses of various SERCA inhibitors.
The inventors further investigated if the nature of calcium flux was of significance as increased intracellular calcium may have different origins. To that effect, the inventors used various calcium signaling modulators to investigate the nature of the calcium flux and contribution. As can be readily taken from the data shown, extracellular calcium flux into the cell was critical for synergistic amplification of calcium signaling. More specifically, FIG. 4 illustrates the effects of different Ca^2+ modulating compounds on synergy with respect to NF-κB activation.
(A reporter such as luciferase makes a cellular process visible.)

On to `CC(C)(C)c1cc(O)c(C(C)(C)C)cc1O` [DBHQ, 2,5-di-tert-butylhydroquinone], for which the “effect on IL-8 production with TLR and NOD ligands” value in test [1] was “synergistic effect”.

Consider `O=C(O)CN(CCOCCOCCN(CC(=O)O)CC(=O)O)CC(=O)O` [EGTA], for which the “effect on calcium flux-induced synergy” value in test [2] is “inhibited”. For the same compound, the “effect of Ca2+ modulating compound on synergy with respect to NF-κB activation” value with NF-κB THP-1 cells was “reduces synergistic signal down to levels in line with what is achieved by TLR ligand alone”. As for `CN([C@@H](Cc1ccc(OS(=O)(=O)c2cccc3cnccc23)cc1)C(=O)N1CCN(c2ccccc2)CC1)S(=O)(=O)c1cccc2cnccc12` [KN-62], the “effect of Ca2+ modulating compound on synergy with respect to NF-κB activation” value in the test on NF-κB THP-1 cells is given as “does not alter reporter gene expression levels”.
